In ChEMBL document CHEMBL3045490, “N-Thiophenylethyl-2,2-dichloro-1-cyclopropanecarboxamides: modification of the amide part of carpropamid and examination of fungicidal activity” (2009) one finds Activity data, which are given here for 45 molecules.

What all share (type): functional
Test [1] concerns Pseudoperonospora cubensis. The test can be described thus: Antifungal activity against Pseudoperonospora cubensis in cucumber assessed as lesion area of the disease at 500 ug/ml after 7 days.
The next test relates to Puccinia recondita. The test can be described thus: Antifungal activity against Puccinia recondita in wheat plant assessed as lesion area of the disease at 500 ug/ml after 10 days.
The next test relates to Botrytis cinerea. The test can be described thus: Antifungal activity against Botryotinia fuckeliana in cucumber cotyledon assessed as lesion area of the disease at 500 ug/ml after 4 days.
Another test has as its system Blumeria graminis. The test can be described thus: Antifungal activity against Blumeria graminis in wheat plant assessed as lesion area of the disease at 500 ug/ml after 10 days.

Consider `CCC1(C(=O)NCCc2ccccc2)C(C)C1(Cl)Cl` (configuration not stated), for which the Activity in test [1] is recorded as 0%; with Puccinia recondita, 1.5%; with Botrytis cinerea it was “>=80%”; with Blumeria graminis it was 0.5%.
Turning to `CCC1(C(=O)NCCc2ccccc2Cl)C(C)C1(Cl)Cl` (configuration not stated), the Activity result (in test [1]; in the test with Puccinia recondita; in the test on Botrytis cinerea; in the test with Blumeria graminis) was “>=80%” in each case.
Consider `CC[C@@]1(C(=O)N[C@H](C)c2ccc(Cl)cc2)[C@@H](C)C1(Cl)Cl` [CARPROPAMIDE], for which the Activity in test [1] is given as 0.5%; with Puccinia recondita it was “>=80%”; in the test with Botrytis cinerea it was “>=80%”; in the test on Blumeria graminis, “>=80%”.
Consider `CCC1(C(=O)NCCc2cc(Br)cs2)C(C)C1(Cl)Cl` (configuration not stated), for which the Activity in test [1] is reported as 0%; in the test with Puccinia recondita, “>=80%”; in the test on Botrytis cinerea, less than 40%; with Blumeria graminis, “>=80%”.
In the case of `CCC1(C(=O)NC(C)CC(F)(F)F)C(C)C1(Cl)Cl` (configuration not stated), the Activity result (in test [1]; in the test with Puccinia recondita; in the test with Botrytis cinerea; with Blumeria graminis) was “>=80%” each time.
As to `CCC1(C(=O)NC(C)c2ccc(Cl)s2)C(C)C1(Cl)Cl` (configuration not stated), the Activity entry is given as “>=80%” in test [1], 1.5% in the test with Puccinia recondita, “>=80%” with Botrytis cinerea and “>=80%” with Blumeria graminis.
Turning to `CC(NC(=O)C1(c2ccccc2)CC1(Cl)Cl)c1ccc(Cl)cc1` (configuration not stated), the Activity result (in test [1]; in the test with Puccinia recondita; in the test with Botrytis cinerea; in the test with Blumeria graminis) was “>=80%” throughout.
Turning to maneb, the Activity (in test [1]; in the test on Puccinia recondita) was 0% each time.
As to `CC(C)(C)CC(=O)NCCc1csc(Cl)c1`, the Activity entry is “>=80%” in test [1], “>=80%” with Puccinia recondita, “>=80%” in the test on Botrytis cinerea and 1.5% with Blumeria graminis.
`N#Cc1c[nH]cc1-c1cccc2c1OC(F)(F)O2` [FLUDIOXONIL]: the Activity in the test on Botrytis cinerea was 0%.
With `CC1(C)C(Cl)(Cl)C1(C)C(=O)NCCc1csc(Cl)c1` (configuration not stated), the Activity result is given as “>=80%” in test [1], 0.5% in the test on Puccinia recondita, “>=80%” in the test on Botrytis cinerea and less than 20% in the test with Blumeria graminis.
Regarding `CCC(C)NC(=O)C1(CC)C(C)C1(Cl)Cl` (configuration not stated), the Activity entry in test [1] is “>=80%”; in the test with Puccinia recondita, “>=80%”; in the test on Botrytis cinerea it was less than 20%; in the test on Blumeria graminis it was “>=80%”.
Turning to `CCC1(C(=O)NC(C)C2CCCC2)C(C)C1(Cl)Cl` (configuration not stated), the Activity in test [1] is on record as 0%; in the test on Puccinia recondita, “>=80%”; with Botrytis cinerea, 3.5%; in the test on Blumeria graminis, “>=80%”.
As for `CCC1(C(=O)NCCc2ccc(Cl)c(Cl)c2)C(C)C1(Cl)Cl` (configuration not stated), the Activity in test [1] is listed as 0%; in the test on Puccinia recondita, 3.5%; in the test with Botrytis cinerea it was “>=80%”; in the test with Blumeria graminis it was “>=80%”.
Consider `CCC1(C(=O)NCC(C)c2ccc(Cl)cc2)C(C)C1(Cl)Cl` (configuration not stated), for which the Activity in test [1] is listed as less than 20%; in the test with Puccinia recondita, “>=80%”; in the test with Botrytis cinerea, “>=80%”; in the test on Blumeria graminis, “>=80%”.
For the molecule `CCC1(C(=O)NC(C)C)C(C)C1(Cl)Cl` (configuration not stated), the Activity is recorded as 0% in test [1], “>=80%” in the test with Puccinia recondita, 3.5% in the test on Botrytis cinerea and “>=80%” in the test with Blumeria graminis.
For `CC(NC(=O)C1(C(C)C)CC1(Cl)Cl)c1ccc(Cl)cc1` (configuration not stated), the Activity entry in test [1] was “>=80%”; in the test with Puccinia recondita it was less than 20%; in the test on Botrytis cinerea, “>=80%”; in the test with Blumeria graminis, “>=80%”.
As for `CCC1(C(=O)NCCc2cccc(Cl)c2)C(C)C1(Cl)Cl` (configuration not stated), the Activity in test [1] is listed as 0%; in the test on Puccinia recondita, less than 40%; in the test with Botrytis cinerea, “>=80%”; in the test with Blumeria graminis it was 2.5%.
Take `CCC1(C(=O)NC(C)c2csc(Cl)c2)C(C)C1(Cl)Cl` (configuration not stated): the Activity is listed as less than 20% in test [1], “>=80%” in the test on Puccinia recondita, “>=80%” with Botrytis cinerea and “>=80%” in the test with Blumeria graminis.
With `CC1(C)C(C(=O)NCCc2csc(Cl)c2)C1(Cl)Cl` (configuration not stated), the Activity in test [1] is 1.5%; with Puccinia recondita, 1.5%; with Botrytis cinerea, “>=80%”; in the test with Blumeria graminis, “>=80%”.
On to `CCC1(C(=O)NCCc2ccc(F)cc2)C(C)C1(Cl)Cl` (configuration not stated), for which the Activity entry in test [1] is “>=80%”; in the test on Puccinia recondita, less than 40%; in the test with Botrytis cinerea, “>=80%”; in the test on Blumeria graminis it was less than 20%.
As to `CC(C)(C)C(C#N)C(=O)NCCc1csc(Cl)c1` (configuration not stated), the Activity entry is on record as “>=80%” in test [1], 1.5% in the test with Puccinia recondita, “>=80%” in the test with Botrytis cinerea and “>=80%” in the test on Blumeria graminis.
For `CCC1(C(=O)NCCc2ccc(Cl)s2)C(C)C1(Cl)Cl` (configuration not stated), the Activity result in test [1] was “>=80%”; with Puccinia recondita it was 1.5%; in the test with Botrytis cinerea, “>=80%”; with Blumeria graminis, “>=80%”.
`CCC1(C(=O)NCCc2cc(Cl)cs2)C(C)C1(Cl)Cl` (configuration not stated): the Activity entry in test [1] is on record as “>=80%”; with Puccinia recondita, less than 40%; with Botrytis cinerea, “>=80%”; with Blumeria graminis it was “>=80%”.
For `CCC1(C(=O)NC(C)Cc2ccc(Cl)cc2)C(C)C1(Cl)Cl` (configuration not stated), the Activity entry (in test [1]; in the test on Puccinia recondita; in the test with Botrytis cinerea; with Blumeria graminis) was “>=80%” throughout.
On to `CCC1(C(=O)NCCc2cc(Cl)c(Cl)s2)C(C)C1(Cl)Cl` (configuration not stated), for which the Activity entry (in test [1]; in the test with Puccinia recondita; in the test with Botrytis cinerea; in the test with Blumeria graminis) was “>=80%” each time.
With `CCC1(C(=O)NC(C)C2CC3C=CC2C3)C(C)C1(Cl)Cl` (configuration not stated), the Activity result is “>=80%” in test [1], “>=80%” in the test with Puccinia recondita, less than 40% with Botrytis cinerea and “>=80%” in the test with Blumeria graminis.
As to `CCC1(C(=O)OCCc2csc(Cl)c2)C(C)C1(Cl)Cl` (configuration not stated), the Activity in test [1] was less than 20%; in the test on Puccinia recondita, “>=80%”; in the test on Botrytis cinerea, 2.5%; in the test with Blumeria graminis, “>=80%”.
As to `CCC1(C(=O)NCCc2ccc(Cl)cc2Cl)C(C)C1(Cl)Cl` (configuration not stated), the Activity result (in test [1]; with Puccinia recondita; in the test on Botrytis cinerea; in the test with Blumeria graminis) was “>=80%” throughout.
Regarding `CC(C)(C)C(Br)C(=O)NCCc1csc(Cl)c1` (configuration not stated), the Activity entry in test [1] is reported as “>=80%”; in the test on Puccinia recondita, less than 20%; with Botrytis cinerea, “>=80%”; in the test with Blumeria graminis, “>=80%”.
Take `CCC1(C(=O)NC(C)C2CCCCCC2)C(C)C1(Cl)Cl` (configuration not stated): the Activity in test [1] is 0%; in the test on Puccinia recondita, “>=80%”; with Botrytis cinerea it was “>=80%”; in the test with Blumeria graminis, “>=80%”.
Consider `CCC1(C(=O)NCCc2ccc(C)cc2)C(C)C1(Cl)Cl` (configuration not stated), for which the Activity result in test [1] was “>=80%”; with Puccinia recondita it was “>=80%”; with Botrytis cinerea, “>=80%”; with Blumeria graminis it was 2.5%.
With `CCC1(C(=O)NCCc2ccc(C(F)(F)F)cc2)C(C)C1(Cl)Cl` (configuration not stated), the Activity result in test [1] is given as “>=80%”; in the test on Puccinia recondita, “>=80%”; with Botrytis cinerea it was “>=80%”; in the test on Blumeria graminis it was 0.5%.
With `CCC1(C(=O)Nc2ccc(Cl)cc2)C(C)C1(Cl)Cl` (configuration not stated), the Activity entry (in test [1]; in the test with Puccinia recondita; in the test on Botrytis cinerea; in the test on Blumeria graminis) was “>=80%” in each case.
As to `CCC1(C(=O)NCCc2csc(Cl)c2)C(C)C1(Cl)Cl` (configuration not stated), the Activity in test [1] is reported as 0.5%; in the test on Puccinia recondita, “>=80%”; in the test with Botrytis cinerea, “>=80%”; in the test on Blumeria graminis it was “>=80%”.
Consider `CCC1(C(=O)NC(C)C2CC2(Cl)Cl)C(C)C1(Cl)Cl` (configuration not stated), for which the Activity entry (in test [1]; with Puccinia recondita; in the test with Botrytis cinerea; in the test on Blumeria graminis) was “>=80%” in each case.
For the molecule `CCC1(C(=O)NCCc2csc(Cl)n2)C(C)C1(Cl)Cl` (configuration not stated), the Activity in test [1] is given as 0%; in the test on Puccinia recondita it was 0.5%; in the test on Botrytis cinerea, “>=80%”; in the test on Blumeria graminis, “>=80%”.
Consider `CCC1(C(=O)NCc2ccc(Cl)cc2)C(C)C1(Cl)Cl` (configuration not stated), for which the Activity in test [1] is given as less than 20%; with Puccinia recondita, “>=80%”; in the test on Botrytis cinerea, “>=80%”; with Blumeria graminis it was “>=80%”.
`CC(NC(=O)C1(C2CCCC2)CC1(Cl)Cl)c1ccc(Cl)cc1` (configuration not stated): the Activity entry (in test [1]; in the test with Puccinia recondita; with Botrytis cinerea; with Blumeria graminis) was “>=80%” in each case.
Regarding `CCC1(C(=O)NC(C)C2CCC2)C(C)C1(Cl)Cl` (configuration not stated), the Activity result (in test [1]; with Puccinia recondita; in the test with Botrytis cinerea; in the test with Blumeria graminis) was “>=80%” throughout.
As for `CC(C)(C)C(Cl)C(=O)NCCc1csc(Cl)c1` (configuration not stated), the Activity entry (in test [1]; in the test on Puccinia recondita; in the test with Botrytis cinerea; in the test on Blumeria graminis) was “>=80%” throughout.
Regarding `CC1(C(=O)NCCc2csc(Cl)c2)CC1(Cl)Cl` (configuration not stated), the Activity in test [1] is 0.5%; in the test on Puccinia recondita it was 0.5%; in the test on Botrytis cinerea it was “>=80%”; with Blumeria graminis, “>=80%”.
Regarding `CC(Cc1ccc(C(C)(C)C)cc1)CN1CCCCC1` (configuration not stated) [FENPROPIDIN], in the test on Blumeria graminis, the Activity was found to be 0%.
For `CCC1(C(=O)NCCCc2ccc(Cl)cc2)C(C)C1(Cl)Cl` (configuration not stated), the Activity in test [1] was 0%; in the test on Puccinia recondita it was “>=80%”; with Botrytis cinerea it was “>=80%”; in the test on Blumeria graminis it was “>=80%”.
In the case of `CCC1(C(=O)NCCc2ccsc2)C(C)C1(Cl)Cl` (configuration not stated), the Activity result was “>=80%” in test [1], less than 40% in the test with Puccinia recondita, “>=80%” in the test with Botrytis cinerea and “>=80%” with Blumeria graminis.
